The conditions of data set [1]: background art, WO 2008/143667, cited from earlier work.
Data set [2] can be described thus: Dissolution rate in water (Lasentec FBRM particle size distribution measurement). The conditions noted are these: 165 mg in 500 ml water, identical conditions, FIG. 4. Type of data set: physicochemical. Here is the method: Equal amounts of both polymorphs (165 mg) were dissolved in the same amounts of water (500 ml) under identical conditions (dissolving regime, stirrer revolutions, etc.). It is obvious that the dissolution rate of polymorph E is approximately twofold. Polymorph E is completely dissolved within about 45 minutes, whereas the same amount of polymorph A is, under same conditions, dissolved after about 90 minutes.

A short description of data set [3]: Solubility of polymorph E in water in comparison with polymorph A. The conditions noted are these: at different temperatures. Format: physicochemical.
For data set [4] the following is noted: all known polymorphic forms; cited from earlier work.

Where two headings read alike, the source gives them in different places.

Regarding `CNC(=O)c1cnn(-c2nc(N)c3ncn([C@@H]4O[C@H](CO)[C@@H](O)[C@H]4O)c3n2)c1` [Polymorph C, 2-[4-[(methylamino)carbonyl]-1H-pyrazol-1-yl]adenosine], the “stability of the polymorph” value in data set [1] was “converted to unstable forms by heating”.

`CNC(=O)c1cnn(-c2nc(N)c3ncn([C@@H]4O[C@H](CO)[C@@H](O)[C@H]4O)c3n2)c1` [polymorph A, 2-[4-[(methylamino)carbonyl]-1H-pyrazol-1-yl]adenosine monohydrate]: the “time to complete dissolution in water” value in data set [2] (monohydrate) was “about 90 minutes”. For the same compound, in data set [1] (monohydrate), the “stability of the polymorph” value was “relatively stable”.

Regarding `CNC(=O)c1cnn(-c2nc(N)c3ncn([C@@H]4O[C@H](CO)[C@@H](O)[C@H]4O)c3n2)c1` [polymorph E, 2-[4-[(methylamino)carbonyl]-1H-pyrazol-1-yl]adenosine], in data set [2], the “dissolution rate in water relative to polymorph A” value was “approximately twofold” and the “time to complete dissolution in water” value was “about 45 minutes”. In addition, the solubility in water entry in data set [3] was “practically the same”.

Turning to `CNC(=O)c1cnn(-c2nc(N)c3ncn([C@@H]4O[C@H](CO)[C@@H](O)[C@H]4O)c3n2)c1` [regadenoson, 2-[4-[(Methylamino)carbonyl]-1H-pyrazol-1-yl]adenosine], in data set [4], the water solubility entry is given as “poor water solubility”.

On to `CNC(=O)c1cnn(-c2nc(N)c3ncn([C@@H]4O[C@H](CO)[C@@H](O)[C@H]4O)c3n2)c1` [amorphous form, 2-[4-[(methylamino)carbonyl]-1H-pyrazol-1-yl]adenosine], for which the “stability of the polymorph” value in data set [1] is reported as “unstable”.

The values above are taken from patent US9441006B2, “Polymorph of 2-[4-[(methylamino)carbonyl]-1H-pyrazol-1-yl]adenosine” (Farmak, a.s., priority 2013, dated 2016).
